Values joined by “and” are separate entries in the source; they are usually repeats but may differ in a detail not shown here. Identical values can stand only once. Active and inactive are the calls of the source.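 The calls were made as follows: active = compounds giving half or more protection of infected cells from virus-caused growth loss, again on retest; inactive = the rest.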 Where a SMILES comes first, the peptide text is derived from it. [ ]: non-standard residue; d: D form. The star is where a group is joined. ξ: configuration not given here. Bz = O=C(c1ccccc1)*; Bn = c1ccc(C*)cc1; ξC = NC(CS)C(=O)O
Test system: CEM cells HIV-1 protection, formazan growth assay
Experiment: NCI AIDS Antiviral Assay
Settings: for IC50: measured here: growth of uninfected CEM cells
Procedure, shortened: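 Soluble formazan readout of cell growth; CEM cells ± HIV-1; 5 drug concs. ≥50% protection → retest; ≥50% again = moderately active; reproducible 100% = confirmed active.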

Row | Structure (SMILES) | EC50 [µM] | IC50 | outcome
1 | O=c1c(SCc2ccc(F)cc2)c(SCc2ccc(F)cc2)cnn1-c1ccccc1 | > 15.8 | > 15.8 µM | –
2 | CS(=O)(=O)N(N(CCCl)S(=O)(=O)c1ccccc1)S(C)(=O)=O | > 126 | 79.4 µM | –
3 | NC(=O)NC(=O)C(Cc1ccc(Cl)cc1)c1ccccc1 (configuration not stated) | > 85.1 | > 85.1 µM | –
4 | C=CCC(C)(O)CCC(O)(CC=C)CC=C (configuration not stated) | > 200 | > 200 µM | –
5 | COC(=O)CCC(C)C1CCC2C3CC[C@@H]4CC(CO)CCC4(C)C3CCC12C (some centres not stated) | > 6.76 | > 6.76 µM | –
6 | NCCCN(CCCCN(CCCN)CCCc1ccccc1)CCCc1ccccc1 | – | – | inactive
7 | O=C1CCCc2[nH]c(=O)ccc21 | – | – | inactive
8 | c1cnc2c(c1)-n1cccc1C1(CCOCC1)NN2 | > 200 | > 200 µM | –
9 | CN1CCc2c(sc3nc(Nc4ccccc4)n(N)c(=O)c23)C1 | > 200 | 93.3 µM | –
10 | COc1ccccc1C(=O)NO | > 200 | > 200 µM | –
11 | CCCC1C[C@H]2CCCCN2[C@H]2CCCN12 (some centres not stated) | > 1120 | 550 µM | –
12 | CCOP(=O)(OCC)OC1c2[nH]cc(C(=O)OCc3ccccc3)c2-c2cc(C(=O)OC)[nH]c2C1OC (configuration not stated) | > 200 | 16.6 µM | –
13 | O=C1CN(C(=O)c2ccccc2)Cc2[nH]c3ccccc3c21 | – | – | inactive
14 | Cc1cn(C2CC(Sc3ccccc3)C(CO)O2)c(=O)[nH]c1=O (configuration not stated) | > 200 | > 200 µM | –
15 | C/C=C/CCC1CCCCN(C(=O)OC(C)(C)C)C1OCC (configuration not stated) | > 60.3 | > 60.3 µM | –
16 | O=C(O)c1cc2ccccc2c(N=Nc2ccc(/C=C/c3ccc(N=Nc4c(O)c(C(=O)O)cc5ccccc45)cc3S(=O)(=O)O)c(S(=O)(=O)O)c2)c1O | 8.51 | 50.1 µM | –
17 | COc1cc2c(cc1OC)NCc1ccccc1NCc1cc(OC)c(OC)cc1NCc1ccccc1NC2 | > 200 | 107 µM | –
18 | CCOC(=O)c1sc2c(C(=O)OCC)n3cc(C)cc(C)c3c2c1O | – | – | inactive
19 | O=C(c1cccc(OCc2ccccc2)c1OCc1ccccc1)N1CCSC1=S | > 200 | 9.12 µM | –
20 | Cc1ccc2c(c1)C1(SCCC(=O)N1c1ccc(Cl)cc1)C(=O)N2 (configuration not stated) | > 191 | 91.2 µM | –
21 | COc1ccc(/C=C2/N=C(N/N=C\C(O)C(O)C(O)CO)NC2=O)cc1 (configuration not stated) | > 200 | 79.4 µM | inactive

Row | Structure (SMILES) | EC50 [µM] | IC50 | outcome
22 | COc1ccc(CCNC(=S)/N=C\C(C(=O)c2ccccc2)=C(\O)c2ccccc2)cc1OC | – | – | inactive
23 | O=C1c2ccccc2-c2nnc(-c3ccc(Cl)cc3)cc21 | > 100 | > 100 µM | –
24 | COc1ccc(NC/C=C/C(=C/COC(C)=O)OC(C)=O)cc1 | > 200 | 3.16 µM | –
25 | Cc1ccc(OCC2OC(n3cnc4c(Cl)nc(N)nc43)CC2Oc2ccc(C)cc2)cc1 (configuration not stated) | > 200 | 66.1 µM | –
26 | Oc1ccc(-c2c3ccccc3c(-c3ccc(O)cc3)c3ccccc23)cc1 | > 2.75 | > 2.75 µM | –
27 | CC(NC(=O)CNC(=O)C(N)CO)C(=O)NC(CCC(=O)O)C(=O)NC(CCCCN)C(=O)N1CCCC1C(=O)NC(CCC(=O)O)C(=O)NC(CCCCN)C(=O)NC(CCC(=O)O)C(=O)NC(CCCN=C(N)N)C(=O)NC(CO)C(=O)NC(Cc1ccc(O)cc1)C(=O)NC(C)C(=O)NC(Cc1cnc[nH]1)C(=O)NC(CO)C(=O)O (configuration not stated) (H-SGAEKPEKERSYAHS-OH; configuration not given here) | > 100 | > 100 µM | –
28 | Cc1ccc2c(c1)C=CC1(O2)N(c2ccccc2)C(=S)OC1(C)C (configuration not stated) | > 200 | 22.4 µM | –
29 | CC1(C)c2ccccc2C(C)(C)[N+]1(C)C | > 200 | 123 µM | –
30 | O=C(O)C(O)(O)C(O)(O)C(=O)O | > 200 | > 200 µM | –
31 | Cc1cc(-c2ccc[nH]2)on1 | > 200 | > 200 µM | –
32 | CN(C)c1ccc(/C=C/c2ccnc3ccccc23)cc1 | > 200 | 10.7 µM | –
33 | N=c1c2c(-c3ccccc3)c[nH]c2ncn1N | > 200 | > 200 µM | –
34 | Cc1ccc(S(=O)(=O)SSSSS(=O)(=O)c2ccc(C)cc2)cc1 | > 30.9 | > 30.9 µM | –
35 | CC1=CC(C)C(=O)N(CC(C)N2CCCC2)C(C)=C1 (configuration not stated) | > 191 | 74.1 µM | –
36 | O=c1nc(N2CCCC2)oc2cc3ccccc3cc12 | > 200 | 89.1 µM | –
37 | CC(=O)NNc1nc(C)c(C(=O)NNC(=O)C(=O)Nc2ccc([N+](=O)[O-])cc2C#N)s1 | > 407 | 331 µM | –
38 | NC(=O)c1ccccc1NC(=O)C(=O)C(C(=O)c1ccc2ccccc2c1)C1OC(=O)c2ccccc21 (configuration not stated) | > 52.5 | 15.8 µM | –
39 | CC1=C(c2cc(C(=O)Nc3nccs3)nc(NC#N)n2)Sc2ccccc2N1 | > 45.7 | > 45.7 µM | –
40 | N#Cc1c2c(c(N3CCOCC3)n3c1nc1ccccc13)CCCC2 | > 200 | 8.32 µM | –
41 | Cc1cc(-c2ccccn2)oc(=O)c1NC(=O)c1ccccc1 | > 200 | 30.2 µM | –
42 | COC(=O)C(CSCc1ccccc1)NC(=O)CNC(=O)c1ccccc1 (configuration not stated) (Bz-Gly-[ξC](Bn)-OMe) | > 245 | 219 µM | –

Row | Structure (SMILES) | EC50 [µM] | IC50 | outcome
43 | CCOC(=O)[C@@]1(C)CC(O)C(=O)N1C (some centres not stated) | – | – | inactive
44 | CC(=O)/C(C=Nc1c(C)n(C)n(C)c1=O)=C(/O)c1ccccc1 | > 200 | 89.1 µM | –
45 | C/C=C/C=C/c1cc2cc3c(c(O)c2c(=O)[nH]1)C1(CC3)C(O)=c2c(=O)c3c(=O)cc(OC)c(=O)c=3c(=O)c2=C1O (configuration not stated) | > 200 | 5.89 µM | –
46 | Cc1cc(Cl)cc2c1NC(=O)C2(O)C(C)C(=O)c1ccc(Cl)cc1 (configuration not stated) | > 186 | 123 µM | –
47 | CC(=O)OC[C@@H](OC(C)=O)[C@@H](OC(C)=O)[C@H]1OC[C@@H]2C[C@H]([C@H]1OC(C)=O)N(Cc1ccccc1)O2 | 93.3 | > 200 µM | –
48 | CN(C)C=NCC(O)c1ccccc1 (configuration not stated) | > 200 | > 200 µM | –
49 | CC(=O)N1CN=C2Sc3ccccc3N2C1 | > 200 | > 200 µM | –
50 | [Cu+2].[Cu+2].[NH-]c1c(N=Nc2ccc(/C=C/c3ccc(N=Nc4cc(S(=O)(=O)[O-])c5cccc(S(=O)(=O)[O-])c5c4[NH-])cc3S(=O)(=O)[O-])c(S(=O)(=O)[O-])c2)cc(S(=O)(=O)[O-])c2cccc(S(=O)(=O)[O-])c12.[Na+] | 10.5 | 24 µM | –
51 | Nc1c(-c2ccccc2)c2ccc([N+](=O)[O-])cc2c(=O)n1-c1cccc(C(=O)O)c1 | > 200 | 135 µM | –
52 | C(=C\CSc1ccccc1)/CSc1ccccc1 | > 13.8 | > 13.8 µM | –
53 | O=C1CSC(c2c[nH]c3ccccc23)N1c1cccc(Cl)c1 (configuration not stated) | > 21.9 | > 21.9 µM | –
54 | CCCCCCCCCCCCCCCCOC(=O)c1cc(O)cc(C(=O)OCCCCCCCCCCCCCCCC)c1 | – | – | inactive
55 | COc1ccc(OC)c(NC(=O)C(=O)NNC(=O)c2sc(NNC(C)=O)nc2C)c1 | – | – | inactive
56 | COC(=O)CCCC=C(c1cc(Cl)c(OC)c(C(=O)OC)c1)c1cc(Cl)c(OC)c(C(=O)OC)c1 | 1.62 | 21.4 µM | –
57 | COc1ccc2c(c1)c[n+](C)c1c3cc(OC)c(OC)cc3ccc21 | > 151 | 1.32 µM and 1.45 µM and 1.35 µM | –
58 | CCOC(=O)C[C@@H]1C2(C=C[C@@]13CO3)OCC(C)(C)CO2 | > 200 | 129 µM | –
59 | CN1C(=O)/C(=C2\SC(=O)N(CNc3ccc(Br)cc3)C2=O)c2ccccc21 | > 200 | 15.5 µM | –
60 | CCCCCCCCCCCCCCCCSS(C)(=O)=O | > 13.8 | 6.92 µM | –
61 | CN(C)CCSC(=Nc1ccccc1)N1C=COC=C1 | > 871 | 44.7 µM | –
62 | Cc1cc(NS(=O)(=O)c2ccc(NC(=O)c3cccc4c(NNc5ccc(S(N)(=O)=O)cc5)c5ccccc5nc34)cc2)no1 | > 200 | 37.2 µM | –
63 | C1=NC(N(Cc2ccccc2)Cc2ccccc2)N(Cc2ccccc2)N1 (configuration not stated) | > 52.5 | 32.4 µM | –

Row | Structure (SMILES) | EC50 [µM] | IC50 | outcome
64 | COC(=O)CN(CC(=O)OC)S(=O)(=O)c1ccc(-c2c3nc(c(-c4ccc(S(=O)(=O)N(CC(=O)OC)CC(=O)OC)cc4)c4ccc([nH]4)c(-c4ccc(S(=O)(=O)N(CC(=O)OC)CC(=O)OC)cc4)c4nc(c(-c5ccc(S(=O)(=O)N(CC(=O)OC)CC(=O)OC)cc5)c5ccc2[nH]5)C=C4)C=C3)cc1 | > 100 | > 100 µM | –
65 | Nc1ccc2cc(S(=O)(=O)O)cc(O)c2c1N=Nc1ccc(NC(=O)Nc2ccc(N=Nc3c(N)ccc4cc(S(=O)(=O)O)cc(O)c34)c(S(=O)(=O)O)c2)cc1S(=O)(=O)O | 55 | > 200 µM | –
66 | C/C(=N/NC(=S)Nc1cccc(Cl)c1)c1cccc(/C(C)=N\NC(=S)Nc2cccc(Cl)c2)n1 | > 200 | 5.25 µM | –
67 | CC(C)CC1[C@@H](OCc2ccccc2)COS(=O)N1Cc1ccccc1 (some centres not stated) | > 200 | 26.3 µM | –
68 | CC(C)Cn1cnnc1NS(=O)(=O)c1cc(C(=O)NN)c(Cl)cc1S | > 200 | > 200 µM | –
69 | C/C(=C\CNc1ncnc2c1ncn2C1CCCCO1)COP(=O)(O)O (configuration not stated) | – | – | inactive
70 | CC(=O)OC1SC(c2c(F)cccc2F)n2c1nc1ccccc12 (configuration not stated) | 38 | 126 µM | –
71 | CCOC(=O)CN1C(=O)c2cc([N+](=O)[O-])cc3cc([N+](=O)[O-])cc(c23)C1=O | – | – | inactive
72 | CCNC(=S)NCCc1c[nH]c2ccccc12 | > 200 | 186 µM | –
73 | Cc1nc2c(s/c(=N\N)n2-c2ccccc2)c(=O)n1C | > 13.2 | > 13.2 µM | –
74 | COC(=O)[C@@H]1CN(C(=O)CCc2ccccc2)C(=O)N1 | > 200 | > 200 µM | –
75 | Cc1ccccc1N=C1SCC(=O)N1c1ccccc1C | 141 | 191 µM | –
76 | Cn1c(=O)oc(=O)c2ccccc21 | – | – | inactive
77 | COC1(OC)CCC2C1C1CCC(OC)(OC)C21 (configuration not stated) | > 141 | > 141 µM | –
78 | CCCNC(=O)N(C(C)C)S(=O)(=O)c1ccc(Cl)cc1 | – | – | inactive
79 | Cn1cnc2nc3ncn(C)c3cc21 | > 200 | > 200 µM | –
80 | Cc1ccc2c(c1)C1C(CO2)C(c2ccccc2)=NN1c1ccccc1 (configuration not stated) | > 105 | > 105 µM | –
81 | Cc1ccnc(NS(=O)(=O)c2ccc(NC3=CC(=O)C(=O)c4ccccc43)cc2)n1 | – | – | inactive
82 | c1ccc(Nc2nnc(-c3nsc4ccccc34)o2)cc1 | > 24.5 | > 24.5 µM | –

— PubChem BioAssay AID179 (DTP/NCI, 2004)
